# Literature values as cited in US20220339088A1, “METHOD FOR DYEING KERATIN MATERIAL, COMPRISING THE USE OF AN ORGANIC C1-C6 ALKOXY SILANE AND AN ACIDIFIER” (Henkel AG & Co. KGaA, priority 2019, published 2022).
# Settings: 25° C.
solubility in water (in words),SMILES,solubility in water
–,"O=S(=O)([O-])c1ccc(N=Nc2c(O)ccc3ccccc23)cc1.[Na+] [Acid Orange 7, sodium salt of 4-[(2-hydroxy-1-naphthyl)azo]benzene sulphonate]",more than 7 g/L
–,"Nc1cc(S(=O)(=O)[O-])cc2cc(S(=O)(=O)[O-])c(N=Nc3ccccc3)c(O)c12.[Na+].[Na+] [Acid Red 33, diantrium salt of 5-amino-4-hydroxy-3-(phenylazo)-naphthalene-2,7-disulphonate]",2500 µg/mL
–,"O=C([O-])c1c(Cl)c(Cl)c(Cl)c(Cl)c1-c1c2c(Br)cc(=O)c(Br)c-2oc2c(Br)c(O)cc(Br)c12.O=C([O-])c1c(Cl)c(Cl)c(Cl)c(Cl)c1-c1c2c(Br)cc(=O)c(Br)c-2oc2c(Br)c(O)cc(Br)c12.[Na+].[Na+] [Acid Red 92, disodium salt of 3,4,5,6-tetrachloro-2-(1,4,5,8-tetrabromo-6-hydroxy-3-oxoxanthen-9-yl)benzoic acid]",greater than 10 g/L
highly soluble,"O=C([O-])C1=NN(c2ccc(S(=O)(=O)[O-])cc2)C(=O)C1N=Nc1ccc(S(=O)(=O)[O-])cc1.[Na+].[Na+].[Na+] (stereo not shown) [Acid Yellow 23, trisodium salt of 4,5-dihydro-5-oxo-1-(4-sulfophenyl)-4-((4-sulfophenyl)azo)-1H-pyrazole-3-carboxylic acid]",–
